Test results from the supplement of paper PMC13380429.

Assays:
[1] = system: A549-ACE2 infected with SARS-CoV-2; assay: morphology score (similarity to uninfected cells); higher = more like uninfected cells; conditions: 24 h
[2] = system: A549-ACE2 infected with SARS-CoV-2; assay: cell count relative to DMSO; higher = less toxic; conditions: 24 h
Caco-2 [3] = assay: cell viability relative to DMSO; higher = less toxic; conditions: 72 h
Calu-3 [4] = assay: as above; conditions: 72 h
HepG2 [5] = assay: as above; conditions: 72 h
U2OS [6] = assay: as above; conditions: 72 h
Vero E6 [7] = assay: as above; conditions: 72 h
[8] = system: A549-ACE2 infected with SARS-CoV-2; assay: SARS-CoV-2 infection rate relative to DMSO; higher = more infection; conditions: 24 h
A549-ACE2 = assay: drug-induced phospholipidosis relative to tamoxifen; higher = more phospholipidosis
Caco-2 [9] = assay: relative viability EC50 (midpoint between 100% and the lowest measured viability); higher = less toxic; conditions: 72 h
Calu-3 [10] = assay: as above; conditions: 72 h
Vero E6 [11] = assay: as above; conditions: 72 h
Caco-2 [12] = assay: drug sensitivity score (DSS) for viability; higher = more toxic; extreme values may be limits of the assay; conditions: 72 h
Calu-3 [13] = assay: as above; conditions: 72 h
HepG2 [14] = assay: as above; conditions: 72 h
U2OS [15] = assay: as above; conditions: 72 h
Vero E6 [16] = assay: as above; conditions: 72 h
HepG2 [17] = assay: relative viability EC50 (midpoint between 100% and the lowest measured viability); higher = less toxic; conditions: 72 h
U2OS [18] = assay: as above; conditions: 72 h

CCC(C)(C)C(=O)O[C@H]1C[C@@H](C)C=C2C=C[C@H](C)[C@H](CC[C@@H]3C[C@@H](O)CC(=O)O3)[C@H]21 [simvastatin]
[1]
Conditions	morphology score
0.1 µM	0.01
0.3 µM	0.17
1 µM	0.04
3 µM	-0.23

CN1CCN(S(=O)(=O)c2ccc(-c3cnc(N)c(C(=O)Nc4cccnc4)n3)cc2)CC1 [AZD2858]
Conditions	SARS-CoV-2 infection rate, [8] [%]	cell count, [2] [%]	cell viability, Caco-2 [3] [%]	cell viability, Calu-3 [4] [%]	cell viability, HepG2 [5] [%]	cell viability, U2OS [6] [%]	cell viability, Vero E6 [7] [%]	morphology score, [1]
1 nM	–	–	96.7	98.2	104	92.4	98.5	–
10 nM	–	–	96.7	102	104	99.5	93.1	–
0.1 µM	103	100	–	–	–	–	–	-0.23
100 nM	–	–	102	99.4	101	96.6	100	–
0.3 µM	100	96	–	–	–	–	–	-0.27
1 µM	86	107	–	–	–	–	–	-0.14
1000 nM	–	–	108	114	97.3	100	102	–
3 µM	95	97	–	–	–	–	–	-0.15
10000 nM	–	–	82.3	85.7	70.4	73.8	78.8	–

drug-induced phospholipidosis [%], A549-ACE2
Conditions	0.3 µM	0.833333 µM	3.33333 µM	6.66667 µM	10 µM	30 µM
24 h	-4.95	-12.2	-21.2	-22.8	-21.3	-18.1
48 h	1.83	-4.03	-14.2	–	–	–
72 h	1.77	-0.315	-6.78	–	–	–

Conditions	drug sensitivity score	relative viability EC50 [µM]
Caco-2 [9]	–	> 10
Caco-2 [12]	0.2	–
Calu-3 [10]	–	> 10
Calu-3 [13]	0	–
HepG2 [14]	1.7	–
U2OS [15]	1	–
Vero E6 [11]	–	> 10
Vero E6 [16]	0.6	–

O=C(c1c2ccccc2cc2ccccc12)N1CCC(N2CCC[C@@H](C(=O)N3CCOCC3)C2)CC1
cell viability [%]
Conditions	Caco-2 [3]	Calu-3 [4]	HepG2 [5]	U2OS [6]	Vero E6 [7]
1 nM	84.6	100	93.7	92.7	97.9
10 nM	100	99.8	93.2	98.9	93.4
100 nM	87.3	105	96.9	102	93.8
1000 nM	94.3	113	85.3	103	89.7
10000 nM	87.2	117	82.3	101	99.8

Conditions	drug sensitivity score	relative viability EC50 [µM]
Caco-2 [9]	–	> 10
Caco-2 [12]	0	–
Calu-3 [10]	–	> 10
Calu-3 [13]	0	–
HepG2 [14]	1.1	–
HepG2 [17]	–	> 10
U2OS [15]	0	–
U2OS [18]	–	> 10
Vero E6 [11]	–	> 10
Vero E6 [16]	0	–

C[C@H](CCC(=O)O)[C@H]1CC[C@H]2[C@@H]3[C@H](O)C[C@@H]4C[C@H](O)CC[C@]4(C)[C@H]3C[C@H](O)[C@]12C [cholic-acid]
cell viability [%]
Conditions	Caco-2 [3]	Calu-3 [4]	HepG2 [5]	U2OS [6]	Vero E6 [7]
1 nM	93.3	87	112	97.3	102
10 nM	92.3	91.1	97.5	100	102
100 nM	95.3	88	96.3	93.5	100
1000 nM	100	99	94.2	102	100
10000 nM	93	96.9	102	96.5	99.4

Conditions	drug sensitivity score	relative viability EC50 [µM]
Caco-2 [9]	–	> 10
Caco-2 [12]	0	–
Calu-3 [10]	–	> 10
Calu-3 [13]	0	–
HepG2 [14]	0	–
HepG2 [17]	–	> 10
U2OS [15]	0	–
U2OS [18]	–	> 10
Vero E6 [11]	–	> 10
Vero E6 [16]	0	–

Cc1sc(C)c(C(=O)NC2(c3ccc(C(=O)O)cc3)CC2)c1Cc1ccc(C(F)(F)F)cc1 [MK-2894]
cell viability [%]
Conditions	Caco-2 [3]	Calu-3 [4]	HepG2 [5]	U2OS [6]	Vero E6 [7]
1 nM	94.8	99.3	104	93.1	93.7
10 nM	95.7	107	99.9	99.8	92.9
100 nM	89	103	111	100	96.5
1000 nM	101	101	96.4	102	93.6
10000 nM	101	109	96.4	106	85.9

Conditions	drug sensitivity score	relative viability EC50 [µM]
Caco-2 [9]	–	> 10
Caco-2 [12]	0	–
Calu-3 [10]	–	> 10
Calu-3 [13]	0	–
HepG2 [14]	0	–
HepG2 [17]	–	> 10
U2OS [15]	0	–
U2OS [18]	–	> 10
Vero E6 [11]	–	> 10
Vero E6 [16]	0	–

NS(=O)(=O)c1nn2cc(-c3ccccc3)nc2s1 [AEG3482]
cell viability [%]
Conditions	Caco-2 [3]	Calu-3 [4]	HepG2 [5]	U2OS [6]	Vero E6 [7]
1 nM	99.9	98	87.5	101	97.2
10 nM	99	104	90.2	98.1	97
100 nM	102	95.8	93	97.8	96.1
1000 nM	88.4	95.1	97	99.2	94.8
10000 nM	89.4	109	94.6	100	92.1

Conditions	drug sensitivity score	relative viability EC50 [µM]
Caco-2 [9]	–	> 10
Caco-2 [12]	0.4	–
Calu-3 [10]	–	> 10
Calu-3 [13]	0	–
HepG2 [14]	0	–
HepG2 [17]	–	> 10
U2OS [15]	0	–
U2OS [18]	–	> 10
Vero E6 [11]	–	> 10
Vero E6 [16]	0	–

Nc1ncnc2c1ncn2CCOCP(=O)(O)O [adefovir]
cell viability [%]
Conditions	Caco-2 [3]	Calu-3 [4]	HepG2 [5]	U2OS [6]	Vero E6 [7]
1 nM	106	97.4	104	90	109
10 nM	100	103	99.6	99.1	90.7
100 nM	90.2	104	98.5	94.1	91.2
1000 nM	85.7	98.2	98.7	98	104
10000 nM	110	96.2	101	100	108

Conditions	drug sensitivity score	relative viability EC50 [µM]
Caco-2 [9]	–	> 10
Caco-2 [12]	0	–
Calu-3 [10]	–	> 10
Calu-3 [13]	0	–
HepG2 [14]	0	–
HepG2 [17]	–	> 10
U2OS [15]	0	–
U2OS [18]	–	> 10
Vero E6 [11]	–	> 10
Vero E6 [16]	0	–

C[C@]12CC[C@H]3[C@@H](CCC4=CC(=O)CC[C@@H]43)[C@@H]1CC[C@@H]2O [Nandrolone]
cell viability [%]
Conditions	Caco-2 [3]	Calu-3 [4]	HepG2 [5]	U2OS [6]	Vero E6 [7]
1 nM	92	95.7	102	98.7	91.6
10 nM	91.3	102	101	96.1	104
100 nM	98.7	102	96.9	98.5	89.9
1000 nM	103	104	108	96.5	96.2
10000 nM	95	99.4	113	96.7	103

Conditions	drug sensitivity score	relative viability EC50 [µM]
Caco-2 [9]	–	> 10
Caco-2 [12]	0	–
Calu-3 [10]	–	> 10
Calu-3 [13]	0	–
HepG2 [14]	0	–
HepG2 [17]	–	> 10
U2OS [15]	0	–
U2OS [18]	–	> 10
Vero E6 [11]	–	> 10
Vero E6 [16]	0	–

CCOCc1nc2c(N)nc3ccccc3c2n1CC(C)(C)O [resiquimod]
cell viability [%]
Conditions	Caco-2 [3]	Calu-3 [4]	HepG2 [5]	U2OS [6]	Vero E6 [7]
1 nM	97.7	102	103	99.7	108
10 nM	96.7	101	104	103	101
100 nM	97.3	94.7	103	101	100
1000 nM	90.4	101	101	100	99.9
10000 nM	91.3	92	94.5	97.8	102

Conditions	drug sensitivity score	relative viability EC50 [µM]
Caco-2 [9]	–	> 10
Caco-2 [12]	0	–
Calu-3 [10]	–	> 10
Calu-3 [13]	0	–
HepG2 [14]	0	–
HepG2 [17]	–	> 10
U2OS [15]	0	–
U2OS [18]	–	> 10
Vero E6 [11]	–	> 10
Vero E6 [16]	0	–

O=C1S/C(=C\c2ccc(OCc3cccc(B(O)O)c3)cc2)C(=O)N1Cc1ccc(F)cc1 [HA-130]
cell viability [%]
Conditions	Caco-2 [3]	Calu-3 [4]	HepG2 [5]	U2OS [6]	Vero E6 [7]
1 nM	93.4	95.2	102	95.6	95.5
10 nM	96	110	98.7	97.5	97.2
100 nM	97	99.6	94.8	94.7	103
1000 nM	97.6	105	101	98.7	91.9
10000 nM	92.8	93.7	103	90.6	93.4

Conditions	drug sensitivity score	relative viability EC50 [µM]
Caco-2 [9]	–	> 10
Caco-2 [12]	0	–
Calu-3 [10]	–	> 10
Calu-3 [13]	0	–
HepG2 [14]	0	–
HepG2 [17]	–	> 10
U2OS [15]	0	–
U2OS [18]	–	> 10
Vero E6 [11]	–	> 10
Vero E6 [16]	0	–

N[C@H]1C[C@@H]1c1ccccc1 (racemic) [tranylcypromine]
cell viability [%]
Conditions	Caco-2 [3]	Calu-3 [4]	HepG2 [5]	U2OS [6]	Vero E6 [7]
1 nM	90.7	92.5	104	96.6	100
10 nM	106	97.7	103	102	99.8
100 nM	93.7	97.6	97	97.7	93.3
1000 nM	104	100	98.5	103	97.1
10000 nM	104	99.7	100	103	108

Conditions	drug sensitivity score	relative viability EC50 [µM]
Caco-2 [9]	–	> 10
Caco-2 [12]	0	–
Calu-3 [10]	–	> 10
Calu-3 [13]	0	–
HepG2 [14]	0	–
HepG2 [17]	–	> 10
U2OS [15]	0	–
U2OS [18]	–	> 10
Vero E6 [11]	–	> 10
Vero E6 [16]	0	–
